Reference: article PMC7725003, “Systematically Studying the Optimal Amino Acid Distribution Patterns of the Amphiphilic Structure by Using the Ultrashort Amphiphiles” (Frontiers in Microbiology, 2020)
Like-named read-outs stand apart in the source and are kept apart here. Where no end group is shown, it is not given here.

How the values were obtained:
P. aeruginosa 27853 = format: cell-based, Pseudomonas aeruginosa; details: 27853, 24 h
How it was run: (§1)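 Inoculum: mid-log phase, MHB, 0.5–1 × 10^6 CFU mL^–1. Peptides: serial dilution in 0.2% BSA, equal volume. Incubation: 24 h, 37°C. Read-out: A492, MIC at 95% inhibition; MBC >99.9% kill after agar subculture.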

Gram-negative bacteria = details: for TI, Gram-negative bacteria: therapeutic index TI = MHC/GM MIC
How it was run: (§2)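 Broth microdilution adapted from NCCLS: mid-log bacteria diluted in MHB to 0.5–1 × 10^6 CFU mL^–1, mixed with peptides serially diluted in 0.2% BSA. After 24 h at 37°C, MIC taken as the lowest concentration inhibiting 95% of growth by absorbance at 492 nm. Assays repeated more than 3 times.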

Gram-positive bacteria = details: for TI, Gram-positive bacteria: therapeutic index TI = MHC/GM MIC
How it was run: as §2

[1] = tested on: Listeria monocytogenes CGMCC 1.1075; format: cell-based; details: CGMCC 1.1075, 24 h
How it was run: as §1

E. coli UB1005 = format: cell-based, Escherichia coli; details: UB1005, 24 h
How it was run: as §1

E. coli 25922 = format: cell-based, Escherichia coli; details: 25922, 24 h
How it was run: as §1

E. coli O78 = format: cell-based, Escherichia coli; details: O78, 24 h
How it was run: as §1

P. aeruginosa ATCC 27853 = format: cell-based, Pseudomonas aeruginosa; details: after 30 sequential passages in sub-MBC concentrations
Procedure: Finally, P. aeruginosa ATCC 27853 was used as the model of the drug resistance study. […] The MBC values of the drugs against every two passage’s cells were tested. As a control, MBCs were also tested using cells that were serially passaged in fresh MHB without drugs. The assay was conducted independently in triplicate with three biological replicates.

S. aureus 29213 = format: cell-based, Staphylococcus aureus; details: 29213, 24 h
How it was run: as §1

S. aureus 25923 = format: cell-based, Staphylococcus aureus; details: 25923, 24 h
How it was run: as §1

S. epidermidis 12228 = format: cell-based, Staphylococcus epidermidis; details: 12228, 24 h
How it was run: as §1

MRSA 43300 = format: cell-based, methicillin-resistant S. aureus
How it was run: as §1

[2] = LPS binding assay (BODIPY-TR-cadaverine displacement); set-up: species or system Escherichia coli; details: 1 h 37°C
Procedure: A BODIPY-TR-cadaverine (BC Sigma, United States) displacement assay was used to determine the abilities of the peptides to bind LPS ([Ma et al., 2015]); in this assay, a probe bound to cell-free LPS was self-quenched but fluoresced upon release into solution. The LPS from E. coli O111:B4 (50 μg/mL) was incubated with a BODIPY-TR-cadaverine (5 μg/mL) in Tris buffer (50 mM, pH 7.4) for 4 h. Subsequently, equal volumes of the LPS-probe solution and the peptides (1–64 μM) were incubated in a sterile 96-well black plate for 1 h at 37°C, and the fluorescence was measured on a spectrofluorophotometer (the Infinite 200 pro, Tecan, China) at excitation and emission wavelengths of 580 nm and 620 nm, respectively. Each test was performed independently in triplicate. The values were converted to %ΔF (AU) using the following equation:
where Fobs is the observed fluorescence at a given peptide concentration, F0 is the initial fluorescence of BC with LPS in the absence of peptides, and F100 is the BC fluorescence with LPS cells upon the addition of 10 μg mL^–1 polymyxin B, a prototype LPS binder serving as the positive control.

E. faecalis 29212 = format: cell-based, Enterococcus faecalis; details: 29212, 24 h
How it was run: as §1

B. subtilis 63501 = format: cell-based, Bacillus subtilis; details: 63501, 24 h
How it was run: as §1

S. pullorum 7913 = format: cell-based, Salmonella pullorum; details: 7913, 24 h
How it was run: as §1

[3] = geometric mean of MICs (Table 3)

With RLRLRLRLL-NH2 [L5] the MBC (P. aeruginosa 27853) was 16 µM, the MIC (P. aeruginosa 27853) was 8 µM and the “GM MIC” value (Gram-negative bacteria; geometric mean of MICs, 9 Gram-negative strains (Table 2)) was 3.17 µM. The “TI, Gram-negative bacteria” value (Gram-negative bacteria) was 80.76, the “GM MIC” value (Gram-positive bacteria; geometric mean of MICs, 7 Gram-positive strains (Table 2)) was 5.94 µM and the “TI, Gram-positive bacteria” value (Gram-positive bacteria) was 43.10. For the same substance, the MBC [1] was 8 µM, the MIC [1] was 4 µM and the MBC (E. coli UB1005) was 8 µM. The MIC (E. coli UB1005) was 4 µM, the MBC (E. coli 25922) was 4 µM and the MIC (E. coli 25922) was 2 µM. The MBC (E. coli O78) was 4 µM, the MIC (E. coli O78) was 2 µM and the resistance development (P. aeruginosa ATCC 27853) was “minimal”. The MBC (S. aureus 29213) was 16 µM, the MIC (S. aureus 29213) was 8 µM and the MBC (S. aureus 25923) was 16 µM. For the same substance, the MIC (S. aureus 25923) was 8 µM, the MBC (S. epidermidis 12228) was 16 µM and the MIC (S. epidermidis 12228) was 8 µM. For the same substance, the MIC (MRSA 43300; MHB, 24 h 37°C, 95% growth inhibition) was 8 µM, the MBC (MRSA 43300; value in brackets, >99.9% of cells killed) was 16 µM and the LPS binding efficiency ([2]; at 16 μM peptide) was about 80%. The MBC (E. faecalis 29212) was 32 µM, the MIC (E. faecalis 29212) was 16 µM and the MBC (B. subtilis 63501) was 2 µM. The MIC (B. subtilis 63501) was 1 µM, the MBC (S. pullorum 7913) was 4 µM and the MIC (S. pullorum 7913) was 2 µM.
With RWRWRWRWW-NH2 [W5] the MBC (P. aeruginosa 27853) was 8 µM, the MIC (P. aeruginosa 27853) was 4 µM and the “GM, Gram-negative bacteria” value (Gram-negative bacteria; [3]) was 2.72 µM. The “TI, Gram-negative bacteria” value (Gram-negative bacteria) was 94.12, the “GM, Gram-positive bacteria” value (Gram-positive bacteria; [3]) was 2.00 µM and the “TI, Gram-positive bacteria” value (Gram-positive bacteria) was 128.00. For the same substance, the MBC [1] was 4 µM, the MIC [1] was 2 µM and the MBC (E. coli UB1005) was 4 µM. For the same substance, the MIC (E. coli UB1005) was 2 µM, the MBC (E. coli 25922) was 4 µM and the MIC (E. coli 25922) was 2 µM. For the same substance, the MBC (E. coli O78) was 8 µM, the MIC (E. coli O78) was 4 µM and the resistance development (P. aeruginosa ATCC 27853) was “minimal”. The MBC (S. aureus 29213) was 4 µM, the MIC (S. aureus 29213) was 2 µM and the MBC (S. aureus 25923) was 4 µM. The MIC (S. aureus 25923) was 2 µM, the MBC (S. epidermidis 12228) was 4 µM and the MIC (S. epidermidis 12228) was 2 µM. For the same substance, the MBC (MRSA 43300; 43300, 24 h) was 4 µM, the MIC (MRSA 43300; 43300, 24 h) was 2 µM and the LPS binding efficiency ([2]; at 32 μM peptide) was about 80%. For the same substance, the MBC (E. faecalis 29212) was 8 µM, the MIC (E. faecalis 29212) was 4 µM and the MBC (B. subtilis 63501) was 2 µM. The MIC (B. subtilis 63501) was 1 µM, the MBC (S. pullorum 7913) was 4 µM and the MIC (S. pullorum 7913) was 2 µM.
